Source: US9249147B2, “Tyrosine kinase inhibitors” (CHEMBRIDGE CORPORATION, priority 2008, dated 2016)
≈ marks a conversion by molar mass, not a printed value. Read-outs that look alike come from different tables or passages of the source. Values belong to the compound of their own block, whether it stands above or below them.

Assays:
[1] = Caco-2 (TC7) A-B Permeability test (pH 6.5/7.4); conditions: human, A-B Permeability (TC7, pH 6.5/7.4), test concentration 1.0E−05 M
[2] = Aqueous Solubility (PBS, pH 7.4); format: physicochemical; conditions: pH 7.4, 2.0E−04 M; for solubility: pH 7.4, PBS
IGF1R = target: T1, IGF1R (Homo sapiens, UniProt P08069); assay: IGF1R kinase assay; format: biochemical; conditions: Table 1; read-out: IGF1R IC50
T1 construct: 6×His- or GST-tagged kinase domain fragments of the corresponding RTKs expressed in baculovirus system; host or cells: baculovirus system
Experimental: (§1) To determine inhibition of several tyrosine kinases, such as IGF1R, InsR, Alk, TrkA and Jak2, kinase assays are conducted using either Kinase-Glo (Promega) or AlphaScreen (PerkinElmer) kinase assay platforms. The Kinase-Glo Luminescent Kinase Assay is a homogeneous method for measuring kinase activity by determining the amount of ATP remaining after a kinase reaction. The luminescent signal is proportional to the amount of ATP and inversely proportional to the amount of kinase activity. Tyrosine kinase PT66 AlphaScreen Assay is a high-sensitivity homogeneous, anti-phosphotyrosine antibody-mediated luminescent proximity method measuring incorporation of phosphate in synthetic poly(Glu-Tyr) substrate. The kinase preparations used consist of purified recombinant, 6×His- or GST-tagged kinase domain fragments of the corresponding RTKs expressed in baculovirus system.
(§2) Compounds with a range of concentrations 40 μM, 20 μM, 10 μM, 5 μM, 2.5 μM, 1.25 μM, 0.625 μM, 0.3125 μM, 0.15625 μM and 0.078125 μM were incubated with NPM-ALK, which was produced in insect cells as a 6×HIS-tagged fusion protein and purified using nickel-charged resin chromatography, for 30 minutes at RT in the presence of 10 μM ATP and 7.0 ng biotinylated poly-GT. A 1:1 mixture of […] and donor beads was then added to the reaction and incubated for an additional 60 minutes at RT. The assay was conducted on a MultiPROBE liquid handling workstation (PerkinElmer) in a 384-well plate format with a total reaction volume of 40 μL per well. Working stocks of all compounds were dissolved in 100% DMSO and serial dilutions of the compounds were performed using kinase buffer (50 mM Tris-HCl (pH 7.5), 5 mM MgCl2, 5 mM MnCl2, 2 mM DTT (added freshly before use), 0.01% Tween-20) containing 5% DMSO. […] Data were collected as optical readings at 520-680 nm on a Fusion™ microplate analyzer (PerkinElmer), and IC50 and Ki values calculated using PRISM3.0 software (GraphPad Software, Inc., San Diego, Calif.). The same assay was also used with minor modifications to assess the IC50 and Ki values for selected compounds against five other tyrosine kinases (IRK, IGF1R, Flt3, Abl, Src), all of which were purchased from commercial vendors. PolyGT-Biotin was bought from CIS Biointernational Cat. #61GT0BLD; ATP—from Sigma Cat. # A7699; sodium orthovanadate—from Sigma Cat. #S-6508; phosphotyrosine (PT66) assay kit from PerkinElmer Cat. #6760602M; automated workstation tips (20 μL): PerkinElmer Cat. #6000657; and OptiPlate-384 (white)—from PerkinElmer Cat. #6007299.

IRK = target: T2, IRK (Homo sapiens, UniProt P06213); assay: IRK (insulin receptor kinase) assay; format: biochemical; conditions: Table 1; read-out: IRK IC50
T2 construct: 6×His- or GST-tagged kinase domain fragments of the corresponding RTKs expressed in baculovirus system; host or cells: baculovirus system
Experimental: as §1, §2

ALK = ALK (Homo sapiens, UniProt Q9UM73); assay: ALK kinase assay (Kinase-Glo / AlphaScreen, purified NPM-ALK); format: biochemical; design: fused to the complete intracytoplasmic portion of ALK containing the functional tyrosine kinase domain; 6xHis; made in house; host or cells: insect cells; the other entry of the earlier key: NPM1 (P06748, Nucleophosmin); conditions: Table 1; read-out: ALK IC50
hERG = hERG (Homo sapiens, UniProt Q12809); assay: hERG Inhibition (Table 6E); format: cell-based; design: expressed in transfected cells; unit not given here
Experimental: Compound (II) was initially tested at 1 μM concentration using a standard patch clamp protocol (Cerep ADMET Study 13170). The hERG channel was expressed in a human embryonic kidney (HEK293) cell line that lacks endogenous hERG channels. […] We have retested compound (II) in hERG assay in a range of lower concentrations to estimate IC50 of hERG inhibition more precisely (Qpatch 16 automated whole-cell patch clamp protocol in CHO-K1 cell line stably expressing hERG, Cerep hERG Study 13292). […] This kind of potency in hERG inhibition should not represent a significant clinical problem since the high degree of hERG inhibition would occur only at the compound concentrations above the expected therapeutic levels.

[3] = Caco-2, pH 6.5, Mean Recovery, mean of n = 2
[4] = Caco-2, pH 6.5, Permeability 1st, 1st replicate
[5] = Caco-2, pH 6.5, Permeability 2nd, 2nd replicate
[6] = Caco-2, pH 6.5, Present Recovery 1st, 1st replicate
[7] = Caco-2, pH 6.5, Present Recovery 2nd, 2nd replicate
[8] = Tables 9C, 9D, read-out: Solubility Mean
[9] = individual data, read-out: Solubility 1st/2nd
[10] = Caco-2, pH 6.5, Mean Permeability, mean of n = 2

Chain of ALK (Q9UM73 with tags, fused parts or gaps): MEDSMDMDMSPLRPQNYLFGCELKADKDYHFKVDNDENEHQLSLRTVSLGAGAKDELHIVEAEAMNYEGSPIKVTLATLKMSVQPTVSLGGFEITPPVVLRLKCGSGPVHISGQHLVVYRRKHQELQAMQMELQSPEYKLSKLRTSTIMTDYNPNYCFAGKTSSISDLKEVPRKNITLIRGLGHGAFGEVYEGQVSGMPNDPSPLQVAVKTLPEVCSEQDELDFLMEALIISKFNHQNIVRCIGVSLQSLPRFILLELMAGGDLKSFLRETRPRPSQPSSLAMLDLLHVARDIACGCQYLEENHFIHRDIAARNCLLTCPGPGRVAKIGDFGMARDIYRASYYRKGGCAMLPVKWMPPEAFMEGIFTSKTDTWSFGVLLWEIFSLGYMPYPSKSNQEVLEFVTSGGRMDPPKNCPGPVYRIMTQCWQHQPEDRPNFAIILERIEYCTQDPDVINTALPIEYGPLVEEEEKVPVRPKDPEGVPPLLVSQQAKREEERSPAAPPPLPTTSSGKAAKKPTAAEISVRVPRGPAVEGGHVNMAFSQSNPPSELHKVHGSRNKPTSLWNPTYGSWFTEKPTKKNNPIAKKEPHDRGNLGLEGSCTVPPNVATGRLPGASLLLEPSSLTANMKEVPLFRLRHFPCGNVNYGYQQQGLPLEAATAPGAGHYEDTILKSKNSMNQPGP
T2 sequence (P06213 1023-1298 limits assumed): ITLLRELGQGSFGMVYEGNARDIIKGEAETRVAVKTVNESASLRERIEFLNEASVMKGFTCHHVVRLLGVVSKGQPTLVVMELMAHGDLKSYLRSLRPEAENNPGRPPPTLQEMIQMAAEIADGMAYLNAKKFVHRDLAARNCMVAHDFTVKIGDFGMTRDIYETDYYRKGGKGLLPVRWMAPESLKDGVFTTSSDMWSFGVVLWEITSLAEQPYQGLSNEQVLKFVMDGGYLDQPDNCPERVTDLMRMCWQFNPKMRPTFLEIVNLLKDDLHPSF
Chain of hERG (Q12809 whole entry): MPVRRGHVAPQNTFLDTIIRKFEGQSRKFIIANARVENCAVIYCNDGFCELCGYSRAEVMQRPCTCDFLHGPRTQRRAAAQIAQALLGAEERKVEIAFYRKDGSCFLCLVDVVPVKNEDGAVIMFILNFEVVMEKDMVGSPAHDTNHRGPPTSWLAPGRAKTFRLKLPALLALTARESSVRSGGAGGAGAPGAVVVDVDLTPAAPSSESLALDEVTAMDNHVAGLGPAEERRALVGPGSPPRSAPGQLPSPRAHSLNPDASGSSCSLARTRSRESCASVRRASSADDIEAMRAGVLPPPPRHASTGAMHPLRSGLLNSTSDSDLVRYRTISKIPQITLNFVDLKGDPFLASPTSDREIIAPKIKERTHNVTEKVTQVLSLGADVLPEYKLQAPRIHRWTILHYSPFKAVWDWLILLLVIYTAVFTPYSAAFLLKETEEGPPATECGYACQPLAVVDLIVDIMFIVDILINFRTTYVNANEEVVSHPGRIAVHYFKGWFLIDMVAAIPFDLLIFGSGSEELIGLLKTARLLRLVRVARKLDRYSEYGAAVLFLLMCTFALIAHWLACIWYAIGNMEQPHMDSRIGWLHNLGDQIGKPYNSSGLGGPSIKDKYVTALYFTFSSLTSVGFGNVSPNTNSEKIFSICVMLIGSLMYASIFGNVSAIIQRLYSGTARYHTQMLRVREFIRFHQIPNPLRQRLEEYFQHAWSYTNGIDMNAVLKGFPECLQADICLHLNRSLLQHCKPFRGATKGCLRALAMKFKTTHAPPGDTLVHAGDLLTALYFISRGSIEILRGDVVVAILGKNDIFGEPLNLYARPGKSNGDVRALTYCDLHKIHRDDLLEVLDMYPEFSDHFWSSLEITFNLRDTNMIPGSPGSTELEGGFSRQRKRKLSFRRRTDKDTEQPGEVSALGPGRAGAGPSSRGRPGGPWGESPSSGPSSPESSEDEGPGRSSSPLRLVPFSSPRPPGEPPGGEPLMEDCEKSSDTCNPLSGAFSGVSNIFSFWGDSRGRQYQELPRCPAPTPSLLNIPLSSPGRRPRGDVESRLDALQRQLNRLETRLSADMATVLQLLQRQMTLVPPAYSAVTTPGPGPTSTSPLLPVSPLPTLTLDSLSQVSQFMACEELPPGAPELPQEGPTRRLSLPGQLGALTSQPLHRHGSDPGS
T1 sequence (P08069 999-1274 limits assumed): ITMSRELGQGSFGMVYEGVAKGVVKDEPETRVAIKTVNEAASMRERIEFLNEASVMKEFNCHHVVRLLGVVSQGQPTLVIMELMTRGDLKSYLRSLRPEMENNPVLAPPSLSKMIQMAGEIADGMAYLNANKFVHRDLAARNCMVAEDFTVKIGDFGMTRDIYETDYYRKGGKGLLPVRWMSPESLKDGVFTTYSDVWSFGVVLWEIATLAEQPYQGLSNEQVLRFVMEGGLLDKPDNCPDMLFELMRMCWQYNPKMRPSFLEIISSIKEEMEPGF

SMILES: COc1cc2c(c(OC)c1OC)-c1ccc(OC)c(=O)cc1[C@@H](NC(C)=O)CC2 [Colchicine]
- recovery at 10 µM [1, 3]: 97%
- Papp A→B at 10 µM [1, 4]: 0.9 ×10⁻⁶ cm/s
- Papp A→B at 10 µM [1, 5]: 0.05 ×10⁻⁶ cm/s
- recovery at 10 µM [1, 6]: 99%
- recovery at 10 µM [1, 7]: 65%

SMILES: O=C1NC(=O)C(c2ccccc2)(c2ccccc2)N1 [Phenytoin]
- Solubility 1st/2nd ([2]; individual data): 86.44 μm
- solubility [2, 8]: 87 µM (≈ 21.9 µg/mL)
- solubility [2, 9]: 87.7 µM (≈ 22.1 µg/mL)

SMILES: C[C@@H](Cc1c(F)c(F)cc(F)c1F)Nc1cc[nH]c(=O)c1-c1nc2cc3c(cc2[nH]1)CN(CCN1CCCC1)C3=O [drawing 345]
- IC50 (IGF1R): > 1000 nM
- IC50 (IRK): 250 to 1000 nM
- IC50 (ALK): < 10 nM

SMILES: Cc1ccc(F)cc1C[C@H](C)Nc1cc[nH]c(=O)c1-c1nc2cc3c(cc2[nH]1)C(=O)N(CCN1CCCC1)C3 [drawing 364]
- hERG Inhibition (hERG; 25): 22.5
- hERG Inhibition (hERG; 100): 28
- hERG Inhibition (hERG; 1000): 50.4
- hERG Inhibition (hERG; column head 500): 38.5

SMILES: Cc1ccc(F)cc1C[C@H](C)Nc1cc[nH]c(=O)c1-c1nc2cc3c(cc2[nH]1)CN(CCN(C)C)C3=O [drawing 365]
- hERG Inhibition (hERG; 25): 5.8
- hERG Inhibition (hERG; 100): 8.8
- hERG Inhibition (hERG; 1000): 6.8
- hERG Inhibition (hERG; column head 500): 11.1
- hERG Inhibition (hERG; column head 3000): 27.1
- hERG Inhibition (hERG; column head 5000): 50.0

SMILES: C[C@@H](Cc1cc(F)cc(F)c1F)Nc1cc[nH]c(=O)c1-c1nc2cc3c(cc2[nH]1)CN(CCN1CCCC1)C3=O [drawing 366]
- hERG Inhibition (hERG; 25): 6.00
- hERG Inhibition (hERG; 100): 9.7
- hERG Inhibition (hERG; 1000): 7.30
- hERG Inhibition (hERG; column head 500): 7.10
- hERG Inhibition (hERG; column head 3000): 33.20
- hERG Inhibition (hERG; column head 5000): 57.80

SMILES: C[C@@H](Cc1cc(F)cc(F)c1F)Nc1cc[nH]c(=O)c1-c1nc2cc3c(cc2[nH]1)CN(CCN(C)C)C3=O [drawing 367]
- hERG Inhibition (hERG; 25): 6.60
- hERG Inhibition (hERG; 100): 10.20
- hERG Inhibition (hERG; column head 500): 13.10

Second part, the compound after the results:

- Solubility 1st/2nd ([2]; individual data): 61.29 μm
- solubility [2, 8]: 61.9 µM (≈ 23.3 µg/mL)
- solubility [2, 9]: 62.5 µM (≈ 23.5 µg/mL)
SMILES: O=C(CCCN1CCC(O)(c2ccc(Cl)cc2)CC1)c1ccc(F)cc1 [Haloperidol]

- Solubility 1st/2nd ([2]; individual data): 109.58 μm
- solubility [2, 8]: 108 µM (≈ 57.5 µg/mL)
- solubility [2, 9]: 107 µM (≈ 56.7 µg/mL)
SMILES: CC(=O)N1CCN(c2ccc(OCC3COC(Cn4ccnc4)(c4ccc(Cl)cc4Cl)O3)cc2)CC1 (stereo not drawn) [Ketoconazole, ketoconazole, reference compound]

- Papp A→B at 10 µM [1, 10]: 6 ×10⁻⁶ cm/s
- recovery at 10 µM [1, 3]: 90%
- Papp A→B at 10 µM [1, 4]: 5.8 ×10⁻⁶ cm/s
- Papp A→B at 10 µM [1, 5]: 6.21 ×10⁻⁶ cm/s
- recovery at 10 µM [1, 6]: 91%
- recovery at 10 µM [1, 7]: 88%
SMILES: CC(CCc1ccccc1)NCC(O)c1ccc(O)c(C(N)=O)c1 (stereo not drawn) [Labetalol]

- Papp A→B at 10 µM [1, 10]: 0.6 ×10⁻⁶ cm/s
- recovery at 10 µM [1, 3]: 95%
- Papp A→B at 10 µM [1, 4]: 0.58 ×10⁻⁶ cm/s
- Papp A→B at 10 µM [1, 5]: 0.64 ×10⁻⁶ cm/s
- recovery at 10 µM [1, 6]: 82%
- recovery at 10 µM [1, 7]: 109%
SMILES: CNC(=C[N+](=O)[O-])NCCSCc1ccc(CN(C)C)o1 [Ranitidine]

- IC50 (IGF1R): 100 to 250 nM
- IC50 (IRK): 100 to 250 nM
- IC50 (ALK): < 10 nM
SMILES: Cc1ccc(F)cc1C[C@H](C)Nc1cc[nH]c(=O)c1-c1nc2c(C)c3c(cc2[nH]1)CN(CCN1CCCC1)C3=O [drawing 321]

- IC50 (IGF1R): 100 to 250 nM
- IC50 (IRK): 250 to 1000 nM
- IC50 (ALK): < 10 nM
SMILES: C[C@@H](Cc1cc(F)cc(F)c1F)Nc1cc[nH]c(=O)c1-c1nc2cc3c(cc2[nH]1)CN(CCN(C)C)C3=O [drawing 325]

- IC50 (IGF1R): 250 to 1000 nM
- IC50 (IRK): 250 to 1000 nM
- IC50 (ALK): 10 to 100 nM
SMILES: C[C@@H](Cc1cc(F)cc(F)c1F)Nc1cc[nH]c(=O)c1-c1nc2cc3c(cc2[nH]1)CN(CCN1CCCC1)C3=O [drawing 327]

- IC50 (IGF1R): 250 to 1000 nM
- IC50 (IRK): 100 to 250 nM
- IC50 (ALK): < 10 nM
SMILES: C[C@@H](Cc1cc(F)ccc1Br)Nc1cc[nH]c(=O)c1-c1nc2cc3c(cc2[nH]1)CN(CCN1CCCC1)C3=O [drawing 330]

- IC50 (IGF1R): > 1000 nM
- IC50 (IRK): 250 to 1000 nM
- IC50 (ALK): 10 to 100 nM
SMILES: Cc1ccc(F)cc1C[C@H](C)Nc1cc[nH]c(=O)c1-c1nc2cc3c(cc2[nH]1)CN(CCN1CCC[C@H]1C)C3=O [drawing 339]

- IC50 (IGF1R): > 1000 nM
- IC50 (IRK): 250 to 1000 nM
- IC50 (ALK): < 10 nM
SMILES: C[C@@H]1CCCN1CCN1Cc2cc3[nH]c(-c4c(N[C@@H](C)Cc5cc(F)cc(F)c5F)cc[nH]c4=O)nc3cc2C1=O [drawing 340]
